Results: patent publication US20170107212A1, “NOVEL COMPOUNDS” (Bayer Pharma Aktiengesellschaft, priority 2014, published 2017)

Key:
[1] = tested on: constitutive active colorectal cancer cell (CRC) Wnt pathway, HCT116 TOPFlash; test: Cellular reporter assay, HCT116 Super TopFlash (constitutive active Wnt pathway), luciferase expression; assay type: cell-based; details: HCT116 Super TopFlash reporter cells, 36 hours incubation, dilution series 50 μM to 15 nM
Description: In order to discover and characterize small molecules which inhibit the constitutive active colorectal cancer cell (CRC) Wnt pathway, a cellular reporter assay was employed. The corresponding assay cell was generated by transfection of the colorectal cancer cell line HCT116 (ATCC, #CCL-247) with the Super TopFlash vector (Morin, Science 275, 1997, 1787-1790; Molenaar et al., Cell 86 (3), 1996, 391-399). The HCT116 cell line is cultivated at 37° C. and 5% CO2 in DMEM/F-12 (Life Technologies, #11320-074), supplemented with 2 mM glutamine, 20 mM HEPES, 1.4 mM pyruvate, 0.15% Na-bicarbonate and 10% foetal bovine serum (GIBCO, #10270), this cancer cell line is pathophysiological relevant since it carries a deletion of position S45 in the β-catenin gene, leading to constitutive active Wnt signaling. Stable transfectants were generated by cotransfection with pcDNA3 and selection of stable transfected cells with 1 mg/ml G418.
(§1) In preparation of the assay, the two cell lines were plated 24 hours before at 10000 cells per well of a 384 micro titre plate (MTP) in 30 μL growth medium. Selective inhibitory activity for small molecules on the mutated Wnt pathway was determined after parallel incubation of both (TOP and FOP) HCT116 reporter cell lines with a compound dilution series from 50 μM to 15 nM in steps of 3.16-fold dilutions in CAFTY buffer (130 mM NaCl, 5 mM KCl, 20 mM HEPES, 1 mM MgCl2, 5 mM NaHCO3, pH 7.4) containing 2 mM Ca^2+ and 0.01% BSA. The compounds were thereby serially prediluted in 100% DMSO and thereafter in addition 50 fold into the CAFTY compound dilution buffer (described above). From this dilution 10 μL were added to the cells in 30 μL growth medium and incubated for 36 hours at 37° C. and 5% CO2. Thereafter luciferase assay buffer (1:1 mixture of luciferase substrate buffer (20 mM Tricine, 2.67 mM MgSO4, 0.1 mM EDTA, 4 mM DTT, 270 μM Coenzyme A, 470 μM Luciferin, 530 μM ATP, ph adjusted to pH 7.8 with a sufficient volume of 5M NaOH) and Triton buffer (30 mL Triton X-100, 115 mL glycerol, 308 mg Dithiothreitol, 4.45 g Na2HPO4.2H2O, 3.03 g TRIS HCl, ad 1 l H20, pH 7.8) was added as equal volume to the compound solution on the cells to determine luciferase expression as a measure of Wnt signaling activity in a luminometer.

[2] = tested on: HCT116 FOPFlash; test: Control reporter assay, HCT116 FOP control vector (non-functional TCF elements), luciferase expression; assay type: cell-based; details: HCT116 FOP control reporter cells, 36 hours incubation, dilution series 50 μM to 15 nM
Description: In a parallel approach, HCT116 cells were cotransfected with the FOP control vector and pcDNA3. The FOP vector is identical to the TOP construct, but it contains instead of functional TCF elements a randomized, non-functional sequence. For this transfection a stable transfected cell line was generated as well.
as §1

Row | Structure (SMILES) | IC50 ([1]; Homo sapiens, HCT-116, 36 h) [µM] | IC50 ([2]; Homo sapiens, HCT-116, 36 h) [µM] | further results
1 | COCCOc1ccc(C(=O)Nc2nnc(-c3cnccc3C)s2)cc1NC(=O)CN1CCN(C)CC1 [Example 73, 4-(2-methoxyethoxy)-3-{[(4-methylpiperazin-1-yl)acetyl]amino}-N-[5-(4-methylpyridin-3-yl)-1,3,4-thiadiazol-2-yl]benzamide] | 1 | ≥ 50 | 
2 | CN1CCN(CC(=O)Nc2cc(C(=O)Nc3nnc(-c4cncnc4)s3)ccc2OC2CC2)CC1 [Example 112, 4-(cyclopropyloxy)-3-{[(4-methylpiperazin-1-yl)acetyl]amino}-N-[5-(pyrimidin-5-yl)-1,3,4-thiadiazol-2-yl]benzamide] | 0.33 | ≥ 50 | 
3 | Cc1ccncc1-c1nnc(NC(=O)c2ccc(OC3COC3)c(NC(=O)CN3CCOCC3)c2)s1 [Example 79, N-[5-(4-methylpyridin-3-yl)-1,3,4-thiadiazol-2-yl]-3-[(morpholin-4-ylacetyl)amino]-4-(oxetan-3-yloxy)benzamide] | 0.24 | ≥ 50 | 
4 | Cc1nccnc1-c1nnc(NC(=O)c2ccc(OC(F)(F)F)c(NC(=O)CN3CCN(C)CC3)c2)s1 [Example 41, 1-methyl-4-(2-{[5-{[5-(3-methylpyrazin-2-yl)-1,3,4-thiadiazol-2-yl]carbamoyl}-2-(trifluoromethoxy)phenyl]amino}-2-oxoethyl)piperazin-1-ium hexafluorophosphate] |  |  | IC50 ([1]; Homo sapiens, HCT-116): 0.86 µM; IC50 ([2]; Homo sapiens, HCT-116): ≥ 50 µM
5 | CN1CCN(CC(=O)Nc2cc(C(=O)Nc3cnc(-c4ccncc4)cn3)ccc2OC(F)(F)F)CC1 [Example 52, 3-{[(4-methylpiperazin-1-yl)acetyl]amino}-N-[5-(pyridin-4-yl)pyrazin-2-yl]-4-(trifluoromethoxy)benzamide] | 0.064 | ≥ 50 | 
6 | CN1CCN(CC(=O)Nc2cc(C(=O)Nc3nnc(-c4ncccc4F)s3)ccc2OC(F)(F)F)CC1 [Example 43, 4-(2-{[5-{[5-(3-fluoropyridin-2-yl)-1,3,4-thiadiazol-2-yl]carbamoyl}-2-(trifluoromethoxy)phenyl]amino}-2-oxoethyl)-1-methylpiperazin-1-ium hexafluorophosphate] |  |  | IC50 ([1]; Homo sapiens, HCT-116): 2 µM; IC50 ([2]; Homo sapiens, HCT-116): 32 µM
7 | Nc1ccc(-c2ccc(NC(=O)c3ccc(OC(F)(F)F)c(NC(=O)CN4CCOCC4)c3)nc2)cn1 [Example 15, N-(6′-amino-3,3′-bipyridin-6-yl)-3-[(morpholin-4-ylacetyl)amino]-4-(trifluoromethoxy)benzamide] | 0.0815 | ≥ 50 | 
8 | CN1CCN(CC(=O)Nc2cc(C(=O)Nc3cnc(-c4cnc(N)cn4)cn3)ccc2OC(F)(F)F)CC1 [Example 59, N-(5′-amino-2,2′-bipyrazin-5-yl)-3-{[(4-methylpiperazin-1-yl)acetyl]amino}-4-(trifluoromethoxy)benzamide] | 4.1 | ≥ 50 | 
9 | COc1ccc(NC(=O)c2ccc(-c3ccncc3)s2)cc1NC(=O)CN1CCOCC1 [Example 25, N-{4-methoxy-3-[(morpholin-4-ylacetyl)amino]phenyl}-5-(pyridin-4-yl)thiophene-2-carboxamide] | 4.4 | ≥ 50 | 
10 | O=C(CN1CCN(C2CC2)CC1)Nc1cc(C(=O)Nc2nnc(-c3cccnc3)s2)ccc1Cl [Example 86, 4-chloro-3-{[(4-cyclopropylpiperazin-1-yl)acetyl]amino}-N-[5-(pyridin-3-yl)-1,3,4-thiadiazol-2-yl]benzamide] | 44 | ≥ 50 | 
11 | CN1CCN(CC(=O)Nc2cc(C(=O)Nc3nnc(-c4cccnc4)s3)ccc2OC(F)(F)F)CC1 [Example 21, 3-{[(4-methylpiperazin-1-yl)acetyl]amino}-N-[5-(pyridin-3-yl)-1,3,4-thiadiazol-2-yl]-4-(trifluoromethoxy)benzamide] |  |  | IC50 [1]: 0.315 µM; IC50 [2]: ≥ 50 µM
12 | O=C(CN1CCOCC1)Nc1cc(C(=O)Nc2nnc(-c3cncnc3)s2)ccc1OC1CC1 [Example 72, 4-(cyclopropyloxy)-3-[(morpholin-4-ylacetyl)amino]-N-[5-(pyrimidin-5-yl)-1,3-4-thiadiazol-2-yl)benzamide] | 1.3 | ≥ 50 | 
13 | CN1CCN(C2(C(=O)Nc3cc(C(=O)Nc4nnc(-c5cncnc5)s4)ccc3OC(F)(F)F)CC2)CC1 [Example 29, 3-({[1-(4-methylpiperazin-1-yl)cyclopropyl]carbonyl}amino)-N-[5-(pyrimidin-5-yl)-1,3,4-thiadiazol-2-yl]-4-(trifluoromethoxy)benzamide] | 0.206 | ≥ 50 | 

The next lines start with results.

Row | IC50 ([1]; Homo sapiens, HCT-116, 36 h) [µM] | IC50 ([2]; Homo sapiens, HCT-116, 36 h) [µM] | Structure (SMILES) | further results
14 | 27.5 | ≥ 50 | O=C(CN1CCOCC1)Nc1cc(C(=O)Nc2nnc(-c3ccccn3)s2)ccc1OC(F)(F)F [Example 80, 3-[{morpholin-4-ylacetyl)amino]-N-[5-(pyridin-2-yl)-1,3,4-thiadiazol-2-yl]-4-(trifluoromethoxy)benzamide] | 
15 | 41 | ≥ 50 | Cc1ncc(-c2nnc(NC(=O)c3ccc(OC(F)(F)F)c(NC(=O)CN4CCOCC4)c3)s2)s1 [Example 100, N-[5-(2-methyl-1,3-thiazol-5-yl)-1,3,4-thiadiazol-2-yl]-3-[(morpholin-4-ylacetyl)amino]-4-(trifluoromethoxy)benzamide] | 
16 | 1.47 | ≥ 50 | CN1CCN(CC(=O)Nc2cc(C(=O)Nc3nnc(-c4cnc(N)s4)s3)ccc2OC(F)(F)F)CC1 [Example 66, N-[5-(2-amino-1,3-thiazol-5-yl)-1,3,4-thiadiazol-2-yl]-3-{[(4-methylpiperazin-1-yl)acetyl]amino}-4-(trifluoromethoxy)benzamide] | 
17 | 0.114 | ≥ 50 | CN1CCN(CC(=O)Nc2cc(C(=O)Nc3nnc(-c4cncc(Cl)c4)s3)ccc2OC(F)(F)F)CC1 [Example 40, formic acid-N-[5-(5-chloropyridin-3-yl)-1,3,4-thiadiazol-2-yl]-3-{[(4-methylpiperazin-1-yl)acetyl]amino}-4-(trifluoromethoxy)benzamide (1:1)] | 
18 | 0.47 | ≥ 50 | Cc1cncc(-c2nnc(NC(=O)c3ccc(OC(F)(F)F)c(NC(=O)CN4CCOCC4)c3)s2)c1 [Example 56, N-[5-(5-methylpyridin-3-yl)-1,3,4-thiadiazol-2-yl]-3-[(morpholin-4-ylacetyl)amino]-4-(trifluoromethoxy)benzamide] | 
19 | 0.663 | ≥ 50 | Cc1cncc(-c2nnc(NC(=O)c3ccc(OC(F)(F)F)c(NC(=O)CN4CCOCC4)c3)s2)n1 [Example 48, N-[5-(6-methylpyrazin-2-yl)-1,3,4-thiadiazol-2-yl]-3-[(morpholin-4-ylacetyl)amino]-4-(trifluoromethoxy)benzamide] | 
20 | 0.18 | ≥ 50 | Cc1cncc(-c2nnc(NC(=O)c3ccc(OC(F)(F)F)c(NC(=O)CN4CCN(C)CC4)c3)s2)n1 [Example 102, 3-{[(4-methylpiperazin-1-yl)acetyl]amino}-N-[5-(6-methylpyrazin-2-yl)-1,3,4-thiadiazol-2-yl]-4-(trifluoromethoxy)benzamide] | 
21 | 33 | ≥ 50 | O=C(CN1CCOCC1)Nc1cc(C(=O)Nc2nnc(-c3cnccc3C(F)(F)F)s2)ccc1OC(F)(F)F [Example 110, 3-[(morpholin-4-ylacetyl)amino)-4-(trifluoromethoxy)-N-{5-[4 (trifluoromethyl)pyridin-3-yl)-1,3,4-thiadiazol-2-yl}benzamide] | 
22 | 0.103 | ≥ 50 | O=C(CN1CCOCC1)Nc1cc(C(=O)Nc2ccc(-c3cccnc3F)cn2)ccc1OC(F)(F)F [Example 16, N-(2′-fluoro-3,3′-bipyridin-6-yl)-3-[(morpholin-4-ylacetyl)amino]-4-(trifluoromethoxy)benzamide] | 
